One substance from patent US20250235501A1, “Methods and Compositions for Treating or Preventing Neurological Injury or Neurological Disorders” (University of Connecticut, priority 2024, published 2025) can be followed below.

One experiment deals with T1, NMDARs (Mus musculus, UniProt P35436+Q01097).
T1 construct: from tissue; host or cells: mouse brain, membrane protein extract 24 h after MCAO or sham
Briefly: Surface expression of NMDARs in brains of MCAO mice (WB). The class given is in vivo. Conditions: 100 nmol/kg ip 15 mins before MCAO; 24 hrs after MCAO. As to the method: FIGS. 7D and 7E show the effects of TAT-EE3 on surface expression of NMDARs in WT and nM2KO mice 24 hrs after MCAO or sham procedure. TAT-SC and TAT-EE3 were ip administrated (100 nmol/kg) 15 mins before MCAO or sham procedure. FIG. 7D show the WB of surface expression of NMDARs from two representative samples/group. Pan-cadherin was used as loading control. FIG. 7E show the quantification of surface expression of NMDARs normalized to Pan-cadherin (ns, p>0.05; ***, p<0.001; ANOVA, Bonferroni's test; mean±SEM; n=4 mice/group).
(§1) Eight-to nine-week-old male mice (˜25 g) were subjected to right middle cerebral artery occlusion (MCAO) for 120 min followed by 24 hours of reperfusion. The genotype information was blinded to the surgeon who conduct the surgeries. […] Mouse body temperature was monitored by a rectal temperature probe and maintained at ˜ 37° C. with an automatic temperature-regulating heating pad connected to animal temperature controller (TCA T-2DF, Physitemp). Cerebral blood flow was monitored after occlusion as well as after reperfusion. […] Successful occlusion was confirmed by 85% reduction of cerebral blood flow monitored by Laser Doppler Flowmetry (LDF) with laser Doppler blood FlowMeter (Moor-VMS-LDF1, Moor Instrument, Dever, UK). […]

Experiment [1] relates to ERK and CREB activities (pERK1/2, pCREB). Kind of experiment: ERK and CREB activities in brains of mice subjected to MCAO (WB). The class given is in vivo, mouse. The settings on record: WT mice; peptide ip 15 min before MCAO or sham. As to the method:
FIGS. 7I-7K show the effects of TAT-EE3 and Trpm2 deletion on ERK and CREB activities in mice subjected to MCAO. […] TAT-EE3 or TAT-SC was ip administrated to WT mice 15 min before MCAO or sham surgeries. FIGS. 7J and 7K show the quantification of pERK1/2 and pCREB expressed in the brains after MCAO or sham procedure (***, p<0.001; ANOVA, Bonferroni's test; mean±SEM, n=4/group).
as §1
NP-40/Triton lysis buffer ([…], 1% Triton™ X-100, 150 mM NaCl, 1 mM EDTA, 50 mM Tris, pH=8.0) containing proteinase inhibitors and phosphatase inhibitors was used to lyse both cultured cells and frozen brain tissue. […] Protein concentration was measured using Pierce™ Rapid Gold BCA Protein Assay Kit. […]

T1 sequence (P35436 20-1464 limits assumed, other chains not shown): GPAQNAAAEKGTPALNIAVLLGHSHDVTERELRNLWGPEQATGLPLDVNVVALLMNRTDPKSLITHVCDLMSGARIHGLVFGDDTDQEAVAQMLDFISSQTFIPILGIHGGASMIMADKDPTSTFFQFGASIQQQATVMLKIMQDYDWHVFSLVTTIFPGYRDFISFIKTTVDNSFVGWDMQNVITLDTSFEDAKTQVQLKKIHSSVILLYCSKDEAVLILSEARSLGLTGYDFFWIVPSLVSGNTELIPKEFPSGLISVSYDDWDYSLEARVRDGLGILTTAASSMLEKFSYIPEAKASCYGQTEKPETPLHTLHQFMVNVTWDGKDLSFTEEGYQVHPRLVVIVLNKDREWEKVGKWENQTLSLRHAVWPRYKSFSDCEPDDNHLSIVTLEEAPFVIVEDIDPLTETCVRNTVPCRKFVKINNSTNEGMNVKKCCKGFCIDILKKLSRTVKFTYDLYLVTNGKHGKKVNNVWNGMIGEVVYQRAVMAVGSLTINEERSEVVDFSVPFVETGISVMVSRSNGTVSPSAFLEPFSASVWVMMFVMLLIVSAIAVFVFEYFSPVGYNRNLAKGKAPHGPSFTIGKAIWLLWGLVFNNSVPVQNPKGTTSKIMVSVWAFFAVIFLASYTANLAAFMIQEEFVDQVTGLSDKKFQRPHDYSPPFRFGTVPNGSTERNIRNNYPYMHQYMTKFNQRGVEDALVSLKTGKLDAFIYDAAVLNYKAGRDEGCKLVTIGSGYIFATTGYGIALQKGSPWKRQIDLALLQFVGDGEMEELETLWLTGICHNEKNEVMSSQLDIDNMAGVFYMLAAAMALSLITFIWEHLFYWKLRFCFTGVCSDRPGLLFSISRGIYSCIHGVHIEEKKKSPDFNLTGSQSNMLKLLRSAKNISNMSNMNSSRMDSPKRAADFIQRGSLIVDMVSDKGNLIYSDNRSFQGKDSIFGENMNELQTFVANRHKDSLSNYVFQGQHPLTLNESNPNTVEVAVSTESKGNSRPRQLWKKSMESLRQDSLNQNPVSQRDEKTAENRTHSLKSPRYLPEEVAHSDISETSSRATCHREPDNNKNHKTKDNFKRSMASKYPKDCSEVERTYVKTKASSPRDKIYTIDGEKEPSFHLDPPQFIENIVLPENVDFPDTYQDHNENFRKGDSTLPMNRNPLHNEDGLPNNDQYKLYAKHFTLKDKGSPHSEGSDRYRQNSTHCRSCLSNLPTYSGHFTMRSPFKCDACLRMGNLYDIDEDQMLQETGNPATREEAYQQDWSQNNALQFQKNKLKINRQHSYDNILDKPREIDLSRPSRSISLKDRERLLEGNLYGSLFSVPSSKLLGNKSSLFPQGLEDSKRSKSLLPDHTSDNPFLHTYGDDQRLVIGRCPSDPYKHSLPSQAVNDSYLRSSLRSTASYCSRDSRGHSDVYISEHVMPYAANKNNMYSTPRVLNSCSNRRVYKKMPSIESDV
T1 sequence (Q01097 27-1482, other chains not shown): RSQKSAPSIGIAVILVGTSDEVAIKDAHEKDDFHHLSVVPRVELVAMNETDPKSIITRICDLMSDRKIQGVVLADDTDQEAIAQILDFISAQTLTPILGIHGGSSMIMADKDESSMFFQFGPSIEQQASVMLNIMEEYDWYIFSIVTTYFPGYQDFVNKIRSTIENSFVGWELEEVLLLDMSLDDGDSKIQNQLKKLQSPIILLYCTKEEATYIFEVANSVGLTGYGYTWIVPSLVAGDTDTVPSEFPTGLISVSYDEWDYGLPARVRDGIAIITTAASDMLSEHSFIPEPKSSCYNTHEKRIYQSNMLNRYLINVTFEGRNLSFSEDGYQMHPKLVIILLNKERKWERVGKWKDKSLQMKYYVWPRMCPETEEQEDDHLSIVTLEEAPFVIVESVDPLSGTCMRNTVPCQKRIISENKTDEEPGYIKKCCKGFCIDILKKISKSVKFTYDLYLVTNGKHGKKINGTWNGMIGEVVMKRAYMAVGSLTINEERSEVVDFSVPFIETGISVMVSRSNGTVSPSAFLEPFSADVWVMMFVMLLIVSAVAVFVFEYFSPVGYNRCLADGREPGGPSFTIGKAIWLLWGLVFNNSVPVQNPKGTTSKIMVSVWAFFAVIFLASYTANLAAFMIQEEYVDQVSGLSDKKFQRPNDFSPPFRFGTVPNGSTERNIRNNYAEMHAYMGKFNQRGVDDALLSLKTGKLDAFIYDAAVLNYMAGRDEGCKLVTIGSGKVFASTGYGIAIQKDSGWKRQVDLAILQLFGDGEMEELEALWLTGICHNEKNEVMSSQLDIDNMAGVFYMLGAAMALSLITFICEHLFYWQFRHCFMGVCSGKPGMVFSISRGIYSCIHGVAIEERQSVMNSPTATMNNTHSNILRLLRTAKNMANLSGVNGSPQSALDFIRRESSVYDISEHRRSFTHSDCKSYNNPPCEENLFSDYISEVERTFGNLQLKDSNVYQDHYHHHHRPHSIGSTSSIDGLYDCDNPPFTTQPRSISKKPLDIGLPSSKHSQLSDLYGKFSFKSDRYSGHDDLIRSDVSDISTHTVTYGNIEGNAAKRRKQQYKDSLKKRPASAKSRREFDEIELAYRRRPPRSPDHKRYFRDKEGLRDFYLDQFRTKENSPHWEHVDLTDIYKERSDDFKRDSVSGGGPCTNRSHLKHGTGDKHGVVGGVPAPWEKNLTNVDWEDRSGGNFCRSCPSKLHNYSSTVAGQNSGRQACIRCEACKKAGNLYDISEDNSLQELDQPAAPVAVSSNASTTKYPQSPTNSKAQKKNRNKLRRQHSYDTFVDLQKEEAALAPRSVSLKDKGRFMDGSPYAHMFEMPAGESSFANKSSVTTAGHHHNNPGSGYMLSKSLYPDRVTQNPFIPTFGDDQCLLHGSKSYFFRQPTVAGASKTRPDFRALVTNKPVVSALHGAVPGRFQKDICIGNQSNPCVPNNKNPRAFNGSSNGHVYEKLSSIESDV

“TAT-EE3: membrane permeable disrupting peptide, sequence YGRKKRRQRRREEDTDSSEEMLALAEE (SEQ ID NO: 4)”: in the experiment with NMDARs, the “enhanced surface expression of NMDARs in MCAO mice” value was “abolished”. In addition, in experiment [1], the “pCREB level in MCAO brains vs sham control brains” value was “no reduction” and the “pERK1/2 level in MCAO brains vs sham control brains” value is “no reduction”.
